# From publication PMC11033320, “Activation of p53 signaling and regression of breast and prostate carcinoma cells by spirooxindole-benzimidazole small molecules” (Frontiers in Pharmacology, 2024)
# Assays:
# SN12C = experiment: NCI anticancer screening, Renal Cancer SN12C; format: cell-based; conditions: Homo sapiens, read-out: % Growth Inhibition (GI %)
# From the text: (§1) The compound has been processed according to standard method NCI-60 Human Tumor Cell Lines Screen for organic compound at development therapeutic program (DTP). Requests for access to this national resource can be submitted online at: […]
# ACHN = experiment: NCI anticancer screening, Renal Cancer ACHN; format: cell-based; conditions: Homo sapiens, read-out: % Growth Inhibition (GI %)
# From the text: as §1
# NCI-H322M = experiment: NCI anticancer screening, Non-Small Cell Lung Cancer NCI-H322M; format: cell-based; conditions: Homo sapiens, read-out: % Growth Inhibition (GI %)
# From the text: as §1
# HOP-62 = experiment: NCI anticancer screening, Non-Small Cell Lung Cancer HOP-62; format: cell-based; conditions: Homo sapiens; HOP-62, 10 μM; read-out: % Growth Inhibition (GI %)
# From the text: as §1
# OVCAR-4 = experiment: NCI anticancer screening, Ovarian Cancer OVCAR-4; format: cell-based; conditions: Homo sapiens; OVCAR-4, 10 μM; read-out: % Growth Inhibition (GI %)
# From the text: as §1
# MDA-MB 231 cells = conditions: for inhibition: 5 µM
# LOX IMVI = experiment: NCI anticancer screening, Melanoma LOX IMVI; format: cell-based; conditions: Homo sapiens, read-out: % Growth Inhibition (GI %)
# From the text: as §1
# HCT-116 = experiment: NCI anticancer screening, Colon Cancer HCT-116; format: cell-based; conditions: Homo sapiens; HCT-116, 10 μM; read-out: % Growth Inhibition (GI %)
# From the text: as §1
# K-562 = experiment: NCI anticancer screening, Leukemia K-562; format: cell-based; conditions: Homo sapiens, K562; K-562, 10 μM; read-out: % Growth Inhibition (GI %)
# From the text: as §1
# HL-60(TB) = experiment: NCI anticancer screening, Leukemia HL-60(TB); format: cell-based; conditions: Homo sapiens, read-out: % Growth Inhibition (GI %)
# From the text: as §1
# SR = experiment: NCI anticancer screening, Leukemia SR; format: cell-based; conditions: Homo sapiens, read-out: % Growth Inhibition (GI %)
# From the text: as §1
# T-47D = experiment: NCI anticancer screening, Breast Cancer T-47D; format: cell-based; conditions: Homo sapiens, T47D, read-out: % Growth Inhibition (GI %)
# From the text: as §1
# SF-539 = experiment: NCI anticancer screening, CNS Cancer SF-539; format: cell-based; conditions: Homo sapiens; SF-539, 10 μM; read-out: % Growth Inhibition (GI %)
# From the text: as §1
# CCRF-CEM = experiment: NCI anticancer screening, Leukemia CCRF-CEM; format: cell-based; conditions: Homo sapiens, read-out: % Growth Inhibition (GI %)
# From the text: as §1
# SK-MEL-5 = experiment: NCI anticancer screening, Melanoma SK-MEL-5; format: cell-based; conditions: Homo sapiens; SK-MEL-5, 10 μM; read-out: % Growth Inhibition (GI %)
# From the text: as §1
# SF-295 = experiment: NCI anticancer screening, CNS Cancer SF-295; format: cell-based; conditions: Homo sapiens; SF-295, 10 μM; read-out: % Growth Inhibition (GI %)
# From the text: as §1
# RXF 393 = experiment: NCI anticancer screening, Renal Cancer RXF 393; format: cell-based; conditions: Homo sapiens; RXF 393, 10 μM; read-out: % Growth Inhibition (GI %)
# From the text: as §1
# EKVX = experiment: NCI anticancer screening, Non-Small Cell Lung Cancer EKVX; format: cell-based; conditions: Homo sapiens, read-out: % Growth Inhibition (GI %)
# From the text: as §1
# SK-MEL-2 = experiment: NCI anticancer screening, Melanoma SK-MEL-2; format: cell-based; conditions: Homo sapiens; SK-MEL-2, 10 μM; read-out: % Growth Inhibition (GI %)
# From the text: as §1
# HS 578T = experiment: NCI anticancer screening, Breast Cancer HS 578T; format: cell-based; conditions: Homo sapiens, read-out: % Growth Inhibition (GI %)
# From the text: as §1
# U251 = experiment: NCI anticancer screening, CNS Cancer U251; format: cell-based; conditions: Homo sapiens, U-251; U251, 10 μM; read-out: % Growth Inhibition (GI %)
# From the text: as §1
# 786-0 = experiment: NCI anticancer screening, Renal Cancer 786-0; format: cell-based; conditions: Homo sapiens; 786-0, 10 μM; read-out: % Growth Inhibition (GI %)
# From the text: as §1
# DU-145 = experiment: NCI anticancer screening, DU-145; format: cell-based; conditions: Homo sapiens; DU-145, 10 μM; read-out: % Growth Inhibition (GI %)
# From the text: as §1
# HCC-2998 = experiment: NCI anticancer screening, Colon Cancer HCC-2998; format: cell-based; conditions: Homo sapiens; HCC-2998, 10 μM; read-out: % Growth Inhibition (GI %)
# From the text: as §1
# PC-3 cells = experiment: MTT assay anticancer activity, PC-3; format: cell-based; conditions: Homo sapiens, PC-3, 5 µM, mean ± SEM, read-out: growth inhibition percentage of PC-3
# From the text: MTT method was done as described above.
# SNB-75 = experiment: NCI anticancer screening, CNS Cancer SNB-75; format: cell-based; conditions: Homo sapiens; SNB-75, 10 μM; read-out: % Growth Inhibition (GI %)
# From the text: as §1
# MALME-3M = experiment: NCI anticancer screening, Melanoma MALME-3M; format: cell-based; conditions: Homo sapiens, read-out: % Growth Inhibition (GI %)
# From the text: as §1
# A549/ATCC = experiment: NCI anticancer screening, Non-Small Cell Lung Cancer A549/ATCC; format: cell-based; conditions: Homo sapiens, read-out: % Growth Inhibition (GI %)
# From the text: as §1
# NCI-H522 = experiment: NCI anticancer screening, Non-Small Cell Lung Cancer NCI-H522; format: cell-based; conditions: Homo sapiens; NCI-H522, 10 μM; read-out: % Growth Inhibition (GI %)
# From the text: as §1
# SW-620 = experiment: NCI anticancer screening, Colon Cancer SW-620; format: cell-based; conditions: Homo sapiens; SW-620, 10 μM; read-out: % Growth Inhibition (GI %)
# From the text: as §1
# HOP-92 = experiment: NCI anticancer screening, Non-Small Cell Lung Cancer HOP-92; format: cell-based; conditions: Homo sapiens; HOP-92, 10 μM; read-out: % Growth Inhibition (GI %)
# From the text: as §1
# SNB-19 = experiment: NCI anticancer screening, CNS Cancer SNB-19; format: cell-based; conditions: Homo sapiens; SNB-19, 10 μM; read-out: % Growth Inhibition (GI %)
# From the text: as §1
# CAKI-1 = experiment: NCI anticancer screening, Renal Cancer CAKI-1; format: cell-based; conditions: Homo sapiens; CAKI-1, 10 μM; read-out: % Growth Inhibition (GI %)
# From the text: as §1
# TK-10 = experiment: NCI anticancer screening, Renal Cancer TK-10; format: cell-based; conditions: Homo sapiens; TK-10, 10 μM; read-out: % Growth Inhibition (GI %)
# From the text: as §1
# NCI/ADR-RES = experiment: NCI anticancer screening, Ovarian Cancer NCI/ADR-RES; format: cell-based; conditions: Homo sapiens, read-out: % Growth Inhibition (GI %)
# From the text: as §1
# SK-MEL-28 = experiment: NCI anticancer screening, Melanoma SK-MEL-28; format: cell-based; conditions: Homo sapiens; SK-MEL-28, 10 μM; read-out: % Growth Inhibition (GI %)
# From the text: as §1
# MOLT-4 = experiment: NCI anticancer screening, Leukemia MOLT-4; format: cell-based; conditions: Homo sapiens; MOLT-4, 10 μM; read-out: % Growth Inhibition (GI %)
# From the text: as §1
# OVCAR-8 = experiment: NCI anticancer screening, Ovarian Cancer OVCAR-8; format: cell-based; conditions: Homo sapiens; OVCAR-8, 10 μM; read-out: % Growth Inhibition (GI %)
# From the text: as §1
SMILES,inhibition at 10 µM (SN12C) [%],inhibition at 10 µM (ACHN) [%],inhibition at 10 µM (NCI-H322M) [%],inhibition at 10 µM (HOP-62) [%],inhibition at 10 µM (OVCAR-4) [%],IC50 (MDA-MB 231 cells) [µM],inhibition (MDA-MB 231 cells) [%],inhibition at 10 µM (LOX IMVI) [%],inhibition at 10 µM (HCT-116) [%],inhibition at 10 µM (K-562) [%],inhibition at 10 µM (HL-60(TB)) [%],inhibition at 10 µM (SR) [%],inhibition at 10 µM (T-47D) [%],inhibition at 10 µM (SF-539) [%],inhibition at 10 µM (CCRF-CEM) [%],inhibition at 10 µM (SK-MEL-5) [%],inhibition at 10 µM (SF-295) [%],inhibition at 10 µM (RXF 393) [%],inhibition at 10 µM (EKVX) [%],melting point [°C],other results
"O=C(c1nc2ccccc2[nH]1)[C@H]1[C@H](c2cccc(F)c2)C2CSCN2[C@]12C(=O)Nc1ccccc12 (stereo partly drawn) [Compound 6m, (3S,6′R)-6'-(1H-Benzo [d]imidazole-2-carbonyl)-7'-(3-fluorophenyl)-3′,6′,7′,7a′-tetrahydro-1′H-spiro [indoline-3.5′-pyrrolo [1,2-c]thiazol]-2-one]",96.1,90.2,99.8,97.9,87.3,4.73 ± 0.224,62.8 ± 3.91,87.5,84.4,84.4,98.4,82.8,79.8,86.7,112,88.8,96.1,85.2,88.2,224 to 226,inhibition at 10 µM (SK-MEL-2): 95.7%; inhibition at 10 µM (HS 578T): 78.2%; inhibition at 10 µM (U251): 106%; inhibition at 10 µM (786-0): 100%; inhibition at 10 µM (DU-145): 105%; inhibition at 10 µM (HCC-2998): 91.8%; inhibition at 5 µM (PC-3 cells): 60.1 ± 0.521%; inhibition at 10 µM (SNB-75): 77.7%; inhibition at 10 µM (MALME-3M): 97.5%; inhibition at 10 µM (A549/ATCC): 84.6%; inhibition at 10 µM (NCI-H522): 77.8%; inhibition at 10 µM (SW-620): 89.1%; inhibition at 10 µM (HOP-92): 99.7%; inhibition at 10 µM (SNB-19): 91.9%; inhibition at 10 µM (CAKI-1): 74.7%; inhibition at 10 µM (TK-10): 116%; inhibition at 10 µM (NCI/ADR-RES): 95.9%; inhibition at 10 µM (SK-MEL-28): 102%; inhibition at 10 µM (MOLT-4): 85.5%; inhibition at 10 µM (OVCAR-8): 94.9%
"O=C(c1nc2ccccc2[nH]1)[C@H]1[C@H](c2ccccc2O)C2CSCN2[C@]12C(=O)Nc1ccccc12 (stereo partly drawn) [Compound 6j, (3S,6′R)-6'-(1H-Benzo [d]imidazole-2-carbonyl)-7'-(2-hydroxyphenyl)-3′,6′,7′,7a′-tetrahydro-1′H-spiro [indoline-3.5′-pyrrolo [1,2-c]thiazol]-2-one]",94.3,92.2,99.8,85.2,86.5,4.665 ± 0.009,40.8 ± 1.63,89.2,96.3,96.4,103,94,80.9,98.5,101,94,96.3,88.2,91.6,186 to 188,inhibition at 10 µM (SK-MEL-2): 104%; inhibition at 10 µM (HS 578T): 85%; inhibition at 10 µM (U251): 95.8%; inhibition at 10 µM (786-0): 106%; inhibition at 10 µM (DU-145): 98.7%; inhibition at 10 µM (HCC-2998): 103%; inhibition at 5 µM (PC-3 cells): 40.3 ± 3.44%; inhibition at 10 µM (SNB-75): 73.1%; inhibition at 10 µM (MALME-3M): 105%; inhibition at 10 µM (A549/ATCC): 98.7%; inhibition at 10 µM (NCI-H522): 87.2%; inhibition at 10 µM (SW-620): 95.4%; inhibition at 10 µM (HOP-92): 97.3%; inhibition at 10 µM (SNB-19): 93.7%; inhibition at 10 µM (CAKI-1): 84%; inhibition at 10 µM (TK-10): 115%; inhibition at 10 µM (NCI/ADR-RES): 95.9%; inhibition at 10 µM (SK-MEL-28): 99%; inhibition at 10 µM (MOLT-4): 89.5%; inhibition at 10 µM (OVCAR-8): 97.7%
"CN(C)c1ccc([C@@H]2C3CSCN3[C@]3(C(=O)Nc4ccccc43)[C@H]2C(=O)c2nc3ccccc3[nH]2)cc1 (stereo partly drawn) [Compound 6k, (3S,6′R)-6'-(1H-Benzo [d]imidazole-2-carbonyl)-7'-(4-(dimethylamino)phenyl)-3′,6′,7′,7a′-tetrahydro-1′H-spiro [indoline-3.5′-pyrrolo [1,2-c]thiazol]-2-one]",94,99,99.8,95.7,91.5,4 ± 0.249,37.6 ± 2.61,94.2,102,92.2,99.5,84.3,83,99.6,99.9,98.2,103,99.7,91.4,178 to 180,inhibition at 10 µM (SK-MEL-2): 106%; inhibition at 10 µM (HS 578T): 91.7%; inhibition at 10 µM (U251): 103%; inhibition at 10 µM (786-0): 103%; inhibition at 10 µM (DU-145): 104%; inhibition at 10 µM (HCC-2998): 102%; inhibition at 5 µM (PC-3 cells): 41.6 ± 0.729%; inhibition at 10 µM (SNB-75): 88.3%; inhibition at 10 µM (MALME-3M): 94.7%; inhibition at 10 µM (A549/ATCC): 94.2%; inhibition at 10 µM (NCI-H522): 87.9%; inhibition at 10 µM (SW-620): 100%; inhibition at 10 µM (HOP-92): 104%; inhibition at 10 µM (SNB-19): 91.7%; inhibition at 10 µM (CAKI-1): 85.8%; inhibition at 10 µM (TK-10): 111%; inhibition at 10 µM (NCI/ADR-RES): 96%; inhibition at 10 µM (SK-MEL-28): 96.1%; inhibition at 10 µM (MOLT-4): 85.6%; inhibition at 10 µM (OVCAR-8): 105%
